Experimental data from ChEMBL document CHEMBL1151914, “3D-QSAR studies of 2,2-diphenylpropionates to aid discovery of novel potent muscarinic antagonists” (Bioorg Med Chem, 2009).

Test: Inhibition of [3H]NMS binding to muscarinic receptor in mouse N4TG1 neuroblastoma cells

Structure (SMILES) | pKi
CN1CC2CC1C[C@H](OC(=O)C(C)(c1ccccc1)c1ccccc1)C2 (stereo partly drawn) | 8.3
CN1CCCC(COC(=O)C(C)(c2ccccc2)c2ccccc2)C1 (stereo not drawn) | 7.8
CC[N+]1(CCOC(=O)C(CO)c2ccccc2)CCCCC1 (stereo not drawn) | 8.7
C[n+]1cscc1C(C)(C)OC(=O)c1ccccc1 | 5.5
CN1CCC(OC(=O)C(C)(c2ccccc2)c2ccccc2)CC1 | 8.8
CN1CCC(OC(=O)C(CO)c2ccc(C(F)(F)F)cc2)CC1 (stereo not drawn) | 7.7
CC(C)N(COC(=O)c1ccc(N)cc1)C(C)C | 5.3
CN1CCCCC1COC(=O)C(C)(c1ccccc1)c1ccccc1 (stereo not drawn) | 6.8
CC[N+](C)(CC)CC(=O)Nc1ccc(Cl)c(Cl)c1 | > 3.33
CN1CCC(COC(=O)C(C)(c2ccccc2)c2ccccc2)CC1 | 7.7
CN1CCC(OC(=O)C(C)(c2ccccc2)c2ccccc2)C1 (stereo not drawn) | 7.8
CC(C(=O)OCCN1CCCCC1)(c1ccccc1)c1ccccc1 | 8.2
CN1CCCC1CCOC(=O)C(C)(c1ccccc1)c1ccccc1 (stereo not drawn) | 8
C[N+](C)(C)CC#CC(O)(c1cccs1)C1CCCC1 (stereo not drawn) | 7.1
C[N+](C)(C)CCOC(=O)C(c1ccccc1)c1ccccc1 | 7.1
CCN1CCC(OC(=O)C(C)(c2ccccc2)c2ccccc2)CC1 | 9
CC(C(=O)OCCN1CCCC1)(c1ccccc1)c1ccccc1 | 8.2
CCN1CCCC(OC(=O)C(C)(c2ccccc2)c2ccccc2)C1 (stereo not drawn) | 6.3
CN1CCC2CC1C[C@@H](OC(=O)C(C)(c1ccccc1)c1ccccc1)C2 (stereo partly drawn) | 8.3
CCN1CCC(COC(=O)C(C)(c2ccccc2)c2ccccc2)CC1 | 6.9
CN1C2CC[C@H]1C[C@@H](OC(=O)C(C)(c1ccccc1)c1ccccc1)C2 | 8.4
CCN(CC)CCOC(=O)C(C)(c1ccccc1)c1ccccc1 [APROFENE] | 8.2
CN1[C@@H]2CC[C@H]1C[C@@H](OC(=O)C(CO)c1ccccc1)C2 (stereo partly drawn) [ATROPINE] | 8.4
